From patent US11370794B2, “Toll-like receptor antagonist compounds and methods of use” (Dynavax Technologies Corporation, priority 2016, dated 2022)
pIC50: −log10 of the molar value. Read-outs that look alike come from different tables or passages of the source.

Key:
human TLR8 = molecular target: T1, human TLR8 (Homo sapiens, UniProt Q9NR97); assay: Inhibition of human TLR8 in human monocytes (TNF-alpha / IL-1 beta ELISA); type: cell-based; details: for pIC50: human monocytes, agonist ORN8L 100 μg/mL, 24 hours; for inhibits TLR8-dependent responses (in words): summary statement of the description
T1 construct: endogenous in cells; host or cells: primary human monocytes (CD14 microbeads) from buffy coats of healthy donors
T1 sequence (Q9NR97 27-1041): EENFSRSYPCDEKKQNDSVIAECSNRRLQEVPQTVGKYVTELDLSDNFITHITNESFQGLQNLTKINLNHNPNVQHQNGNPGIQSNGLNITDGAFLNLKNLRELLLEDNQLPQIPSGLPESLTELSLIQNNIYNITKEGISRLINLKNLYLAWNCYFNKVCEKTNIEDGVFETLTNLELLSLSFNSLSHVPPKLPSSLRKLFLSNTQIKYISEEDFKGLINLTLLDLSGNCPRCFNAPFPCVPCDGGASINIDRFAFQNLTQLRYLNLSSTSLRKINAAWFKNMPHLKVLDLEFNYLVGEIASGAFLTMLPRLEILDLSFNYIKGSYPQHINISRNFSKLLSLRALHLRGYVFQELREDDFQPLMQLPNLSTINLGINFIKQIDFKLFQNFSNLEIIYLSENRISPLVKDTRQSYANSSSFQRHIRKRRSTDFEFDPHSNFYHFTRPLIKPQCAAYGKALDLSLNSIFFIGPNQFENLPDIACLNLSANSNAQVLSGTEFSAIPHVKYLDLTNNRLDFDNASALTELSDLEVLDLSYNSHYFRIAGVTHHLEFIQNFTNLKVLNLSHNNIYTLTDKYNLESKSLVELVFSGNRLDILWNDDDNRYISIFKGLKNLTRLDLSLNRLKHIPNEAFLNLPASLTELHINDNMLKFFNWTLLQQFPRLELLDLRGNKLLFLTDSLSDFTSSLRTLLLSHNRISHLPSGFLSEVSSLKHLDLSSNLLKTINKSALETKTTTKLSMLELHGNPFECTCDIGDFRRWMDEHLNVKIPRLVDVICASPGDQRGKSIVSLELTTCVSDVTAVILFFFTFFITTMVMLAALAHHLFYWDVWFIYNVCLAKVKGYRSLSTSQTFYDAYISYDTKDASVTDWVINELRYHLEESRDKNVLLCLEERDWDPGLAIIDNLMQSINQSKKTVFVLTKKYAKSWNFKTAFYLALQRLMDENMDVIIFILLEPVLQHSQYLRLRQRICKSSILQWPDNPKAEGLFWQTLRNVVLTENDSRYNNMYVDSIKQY
Method in brief: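 Primary human monocytes from donor buffy coats (~200,000 cells/well) given serially diluted compound, then ORN8L RNA oligonucleotide agonist at 100 μg/mL final. After 24 h at 37 °C, supernatant TNF-alpha and/or IL-1 beta measured by ELISA; IC50 from the concentration-response of cytokine release.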

[1] = Metabolic stability in human liver microsomes; type: in vitro ADME; details: 0.5 mg/mL microsomal protein, 1.5 μM compound, 37° C.; for half-life at 1.5 μM: 0-45 minutes, read-out: T1/2 in human liver microsomes
Experimental: Example B7—Metabolic Stability
The stability of compounds in human liver microsomes was tested. Human liver microsomes (from BD Gentest) were spiked with compounds to a final liver microsomal protein concentration of 0.5 mg/mL and a final compound concentration of 1.5 μM. Samples were incubated for 0, 5, 15, 30, 45 minutes at 37° C. The reaction was stopped by the addition of acetonitrile. An aliquot of the stopped reaction was mixed with ultra-pure water (Millipore, ZMQS50F01) and analyzed by liquid chromatography/electrospray ionization mass spectroscopy.

[2] = Plasma stability in human plasma; type: in vitro ADME; details: plasma (90%); 90% human plasma, 2 μM compound, 37° C., 0-60 minutes; read-out: T1/2 in human plasma
Experimental: Example B6—Plasma Stability
The stability of compounds in human plasma was tested. Human plasma was spiked with compound to final concentration of 90% plasma and 2 μM compound. Samples were incubated for 0, 5, 15, 30, 45 and 60 minutes at 37° C. The reaction was stopped by the addition of acetonitrile. An aliquot of the stopped reaction was mixed with ultra-pure water (Millipore, ZMQS50F01) and analyzed by liquid chromatography/electrospray ionization mass spectroscopy.

[3] = IL-1 beta readout, read-out: Human TLR8 IC50 IL-1b
[4] = TNF-alpha readout, read-out: Human TLR8 IC50 TNF-a

Row | SMILES | pIC50 (human TLR8; [3]) | pIC50 (human TLR8; [4]) | CLint scaled at 1.5 μM [1] [mL/min/kg] | half-life at 1.5 μM [1] [h] | half-life at 2 μM [2] [h] | inhibits TLR8-dependent responses (in words) (human TLR8)
1 | Cc1ccc(-n2nc3c(N4CCC(C(=O)NCC(C)(C)CNc5ccccc5)CC4)nnc(C)c3c2C)cc1 [2-1] | 5.00 | 5.01 | – | – | – | –
2 | Cc1ccc(-n2nc3c(N4CCC(C(=O)NCCCN(C)Cc5ccccc5)CC4)nnc(C)c3c2C)cc1 [Compound No. 1, N-(3-(benzyl(methyl)amino)propyl)-1-(3,4-dimethyl-2-(p-tolyl)-2H-pyrazolo[3,4-d]pyridazin-7-yl)piperidine-4-carboxamide] | 6.13 | 6.21 | 347 | 0.0833 | 3.74 | inhibit
3 | Cc1ccc(-n2nc3c(N4CCC(C(=O)N5CCN(Cc6ccccc6)CC5)CC4)nnc(C)c3c2C)cc1 [Compound No. 2, (4-benzylpiperazin-1-yl)(1-(3,4-dimethyl-2-(p-tolyl)-2H-pyrazolo[3,4-d]pyridazin-7-yl)piperidin-4-yl)methanone] | 6.05 | 6.17 | – | – | – | inhibit
4 | Cc1ccc(-n2nc3c(N4CCC(C(=O)NC5CN(C)C5)CC4)nnc(C)c3c2C)cc1 [Compound No. 3, 1-(3,4-dimethyl-2-(p-tolyl)-2H-pyrazolo[3,4-d]pyridazin-7-yl)-N-(1-methylazetidin-3-yl)piperidine-4-carboxamide] | < 5.00 | < 5.00 | 4.5 | 6.4 | 3.45 | –
5 | Cc1ccc(-n2nc3c(N4CCC(C(=O)NC5CN(Cc6ccccc6)C5)CC4)nnc(C)c3c2C)cc1 [Compound No. 4, N-(1-benzylazetidin-3-yl)-1-(3,4-dimethyl-2-(p-tolyl)-2H-pyrazolo[3,4-d]pyridazin-7-yl)piperidine-4-carboxamide] | 6.00 | 6.11 | – | – | – | inhibit
6 | Cc1ccc(-n2nc3c(N4CCC(C(=O)NCCCN(C)C)CC4)nnc(C)c3c2C)cc1 [Compound No. 5, 1-(3,4-dimethyl-2-(p-tolyl)-2H-pyrazolo[3,4-d]pyridazin-7-yl)-N-(3-(dimethylamino)propyl)piperidine-4-carboxamide] | < 5.00 | < 5.00 | 2.2 | 13.3 | 17.9 | –
7 | Cc1ccc(-n2nc3c(N4CCC(C(=O)NCCCc5c[nH]cn5)CC4)nnc(C)c3c2C)cc1 [Compound No. 6, N-(3-(1H-imidazol-4-yl)propyl)-1-(3,4-dimethyl-2-(p-tolyl)-2H-pyrazolo[3,4-d]pyridazin-7-yl)piperidine-4-carboxamide] | < 5.00 | 5.18 | – | – | – | –
8 | Cc1ccc(-n2nc3c(N4CCC(CCC(=O)NCCN(C)C)CC4)nnc(C)c3c2C)cc1 [Compound No. 9, 3-(1-(3,4-dimethyl-2-(p-tolyl)-2H-pyrazolo[3,4-d]pyridazin-7-yl)piperidin-4-yl)-N-(2-(dimethylamino)ethyl)propanamide] | 5.30 | 5.91 | – | – | – | –
